In patent US11066414B2, “Cot modulators and methods of use thereof” (Gilead Sciences, Inc., priority 2015, dated 2021) one finds IC50 and EC50 data, which are given here for 22 compounds.

pEC50, pIC50: −log10 of the molar value. Where two headings read alike, the source gives them in different places.

The term pIC50 denotes −log10 of the IC50, conventionally taken in molar units. For orientation: pEC50 means the EC50 on a negative log10 scale, so that one unit is a factor of ten.

Assay [1] deals with Human Cot (Homo sapiens (Human), UniProt P41279). Description: High Throughput Cot Biochemical Assay. The conditions noted are these: Cot HTRF (TR-FRET KinEASE) biochemical assay, 400 μM ATP. On the technique in general: In TR-FRET formats the signal depends on donor and acceptor labels being close together.
The subject of assay [2] is TNFα. Put plainly: Cot Monocyte TNFα Cell Based Assay.
Setting [3] is: Homo sapiens, Monocyte, read-out: EC50 TNF, LPS-stimulated human monocytes, TNFα TR-FRET.
Where [4] appears, read: read-out: EC50 TNF, LPS-stimulated human monocytes, TNFα TR-FRET.

Sequence of Human Cot (P41279 30-397): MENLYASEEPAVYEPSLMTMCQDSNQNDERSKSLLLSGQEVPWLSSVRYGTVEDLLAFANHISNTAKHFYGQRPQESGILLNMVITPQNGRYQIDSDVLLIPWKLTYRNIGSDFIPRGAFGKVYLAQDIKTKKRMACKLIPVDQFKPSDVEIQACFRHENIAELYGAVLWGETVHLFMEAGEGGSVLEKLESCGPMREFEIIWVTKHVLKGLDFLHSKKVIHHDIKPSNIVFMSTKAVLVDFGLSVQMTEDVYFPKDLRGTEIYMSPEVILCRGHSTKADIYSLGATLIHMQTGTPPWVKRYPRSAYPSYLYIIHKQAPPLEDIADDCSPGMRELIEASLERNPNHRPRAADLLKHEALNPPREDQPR

As for `Cn1ccc2c([C@H](Nc3cc(C#N)c4ncc(C#N)c(NCC(C)(C)C(F)(F)F)c4c3)c3cn(C4(C(F)F)CC4)nn3)cccc2c1=O` [Example 838, (S)-6-(((1-(1-(difluoromethyl)-cyclopropyl)-1H-1,2,3-triazol-4-yl)(2-methyl-1-oxo-1,2-dihydroisoquinolin-5-yl)methyl)amino)-4-((3,3,3-trifluoro-2,2-dimethylpropyl)-amino)quinoline-3,8-dicarbonitrile], the pIC50 in assay [1] (IC50 HTRF) was 8.52. Also, in assay [2] (setting [3]), the pEC50 was 7.08.
`Cc1nc(F)ccc1[C@H](Nc1cc(C#N)c2ncc(C#N)c(NCC(C)(C)C)c2c1)c1cn(CC2(C(F)(F)F)CC2)nn1` [Example 839, (S)-6-(((6-fluoro-2-methylpyridin-3-yl)(1-((1-(trifluoromethyl)cyclo-propyl)methyl)-1H-1,2,3-triazol-4-yl)methyl)amino)-4-(neopentylamino)quinoline-3,8-dicarbonitrile] showed a pIC50 in assay [1] (IC50 HTRF) of 8.22. The pEC50 in assay [2] (setting [3]) was 7.03.
Consider `Cc1nc(F)ccc1[C@H](Nc1cc(C#N)c2ncc(C#N)c(NCC(C)(C)C(F)(F)F)c2c1)c1cn(C2(C(F)F)CC2)nn1` [Example 841], for which, in assay [1] (read-out: IC50 HTRF), the pIC50 is 8.70. In assay [2] (setting [4]), the pEC50 was 7.39.
The corresponding values for `CC(C)(CNc1c(C#N)cnc2c(C#N)cc(N[C@H](c3cn(C4(C(F)F)CC4)nn3)c3cccc4c(=O)[nH]ccc34)cc12)C(F)(F)F` [Example 842] are 8.52 and 6.25.
As to `Cc1nc(F)ccc1[C@H](Nc1cc(C#N)c2ncc(C#N)c(NCC(C)(C)C(F)(F)F)c2c1)c1cn(C2(C(F)(F)F)CC2)nn1` [Example 843, (S)-6-(((6-fluoro-2-methylpyridin-3-yl)(1-(1-(trifluoromethyl)cyclopropyl)-1H-1,2,3-triazol-4-yl)methyl)amino)-4-((3,3,3-trifluoro-2,2-dimethylpropyl)amino)-quinoline-3,8-dicarbonitrile], in assay [1] (IC50 HTRF), the pIC50 was 8.40. The pEC50 in assay [2] (setting [3]) was 6.98.
In turn, `Cc1nc(F)ccc1[C@H](Nc1cc(C#N)c2ncc(C#N)c(NCC3C(C)(C)C3(C)C)c2c1)c1cn(C2(C(F)F)CC2)nn1` [Example 845, (S)-6-(((1-(1-(difluoromethyl)-cyclopropyl)-1H-1,2,3-triazol-4-yl)(6-fluoro-2-methylpyridin-3-yl)methyl)amino)-4-(((2,2,3,3-tetramethylcyclopropyl)methyl)-amino)quinoline-3,8-dicarbonitrile] showed a pIC50 in assay [1] (IC50 HTRF) of 7.70. For the same compound, in assay [2] (setting [3]), the pEC50 is 6.00.
`Cc1nc(F)ccc1[C@H](Nc1cc(C#N)c2ncc(C#N)c(NCC(C)(C)C(F)(F)F)c2c1)c1cn(C2(C)CC2)nn1` [Example 846, (S)-6-(((6-fluoro-2-methylpyridin-3-yl)(1-(1-methylcyclopropyl)-1H-1,2,3-triazol-4-yl)methyl)amino)-4-((3,3,3-trifluoro-2,2-dimethylpropyl)amino)quinoline-3,8-dicarbonitrile]: the pIC50 in assay [1] (IC50 HTRF) is 8.70. Moreover, the pEC50 in assay [2] (setting [3]) was 7.77.
`Cn1ccc2c([C@H](Nc3cc(C#N)c4ncc(C#N)c(NCC(C)(C)C)c4c3)c3cn(C4(C(F)F)CC4)nn3)cccc21` [Example 847, (S)-6-(((1-(1-(difluoromethyl)-cyclopropyl)-1H-1,2,3-triazol-4-yl)(1-methyl-1H-indol-4-yl)methyl)amino)-4-(neopentylamino)quinoline-3,8-dicarbonitrile] gave a pIC50 in assay [1] (IC50 HTRF) of 7.51. The pEC50 in assay [2] (setting [3]) is 6.53.
Regarding `Cc1nc(F)ccc1[C@H](Nc1cc(C#N)c2ncc(C#N)c(NCC34CC(C3)C4)c2c1)c1cn(C2(C(F)(F)F)CC2)nn1` [Example 848, (S)-4-((bicyclo[1.1.1]pentan-1-ylmethyl)amino)-6-(((6-fluoro-2-methylpyridin-3-yl)(1-(1-(trifluoromethyl)cyclopropyl)-1H-1,2,3-triazol-4-yl)methyl)amino)quinoline-3,8-dicarbonitrile], the pIC50 in assay [1] (IC50 HTRF) is 7.51. Also, the pEC50 in assay [2] (setting [3]) was 6.61.
With `Cc1nc(F)ccc1[C@H](Nc1cc(C#N)c2ncc(C#N)c(NCC34CC(C3)C4)c2c1)c1cn(C2(C(F)F)CC2)nn1` [Example 849, (S)-4-((bicyclo[1.1.1]pentan-1-ylmethyl)amino)-6-(((1-(1-(difluoromethyl)-cyclopropyl)-1H-1,2,3-triazol-4-yl)(6-fluoro-2-methylpyridin-3-yl)methyl)amino)quinoline-3,8-dicarbonitrile], the pIC50 in assay [1] (IC50 HTRF) was 7.80. The pEC50 in assay [2] (setting [3]) is 6.58.
In assay [1] (IC50 HTRF), `Cc1nc(F)ccc1[C@H](Nc1cc(C#N)c2ncc(C#N)c(NCC(C)(C)C)c2c1)c1cn(C(C)(C)C2CC2)nn1` [Example 850, (S)-6-(((1-{2-cyclopropylpropan-2-yl)-1H-1,2,3-triazol-4-yl)(6-fluoro-2-methylpyridin-3-yl)methyl)amino)-4-(neopentylamino)quinoline-3,8-dicarbonitrile] gave a pIC50 of 8.22. For the same compound, the pEC50 in assay [2] (setting [3]) is 7.19.
The like results for `Cc1nc(F)ccc1[C@H](Nc1cc(C#N)c2ncc(C#N)c(NCC(C)(C)C)c2c1)c1cn(C2(C(C)C)CC2)nn1` [Example 851, (S)-6-(((6-fluoro-2-methylpyridin-3-yl)(1-(1-isopropylcyclopropyl)-1H-1,2,3-triazol-4-yl)methyl)amino)-4-(neopentylamino)quinoline-3,8-dicarbonitrile] were, in that order, 8.52 and 7.68.
The like results for `Cc1nc(F)ccc1[C@H](Nc1cc(C#N)c2ncc(C#N)c(NCC(C)(C)C)c2c1)c1cn(C2(C)COC2)nn1` [Example 852, (S)-6-(((6-fluoro-2-methylpyridin-3-yl)(1-(3-methyloxetan-3-yl)-1H-1,2,3-triazol-4-yl)methyl)amino)-4-(neopentylamino)quinoline-3,8-dicarbonitrile] were, in that order, 8.70 and 7.24.
The like results for `Cn1ccc2c([C@H](Nc3cc(C#N)c4ncc(C#N)c(NCC(C)(C)C)c4c3)c3cn(C4(C)COC4)nn3)cccc2c1=O` [Example 853, (S)-6-(((2-methyl-1-oxo-1,2-dihydroisoquinolin-5-yl)(1-(3-methyloxetan-3-yl)-1H-1,2,3-triazol-4-yl)methyl)amino)-4-(neopentylamino)quinoline-3,8-dicarbonitrile] were, in that order, 9.00 and 7.01.
On to `Cc1nc(F)ccc1[C@H](Nc1cc(C#N)c2ncc(C#N)c(NCC(C)(C)C)c2c1)c1nnn([C@@H](C)CF)c1F` [Example 854, 6-(((S)-(5-fluoro-1-((S)-1-fluoropropan-2-yl)-1H-1,2,3-triazol-4-yl)(6-fluoro-2-methylpyridin-3-yl)methyl)amino)-4-(neopentylamino)quinoline-3,8-dicarbonitrile], for which the pIC50 in assay [1] (IC50 HTRF) is 8.40. The pEC50 in assay [2] (setting [3]) was 7.77.
In assay [1] (IC50 HTRF), `CC(C)(C)CNc1c(C#N)cnc2c(C#N)cc(N[C@H](c3cn(C4CC4)nn3)c3csc4cnccc34)cc12` [Example 856, (S)-6-(((1-cyclopropyl-1H-1,2,3-triazol-4-yl)(thieno[2,3-c]pyridin-3-yl)methyl)amino)-4-(neopentylamino)quinoline-3,8-dicarbonitrile] showed a pIC50 of 9.00. Besides, in assay [2] (setting [3]), the pEC50 is 7.54.
`Cc1nc(F)ccc1[C@H](Nc1cc(C#N)c2ncc(C#N)c(NCC(C)(C)C)c2c1)c1nnn(C2CC2)c1C1CC1` [Example 857, (S)-6-(((l,5-dicyclopropyl-1H-1,2,3-triazol-4-yl)(6-fluoro-2-methylpyridin-3-yl)methyl)amino)-4-(neopentylamino)quinoline-3,8-dicarbonitrile]: the pIC50 in assay [1] (read-out: IC50 HTRF) is 8.40. Moreover, in assay [2] (setting [4]), the pEC50 is 6.74.
`Cc1nc(F)ccc1[C@H](Nc1cc(C#N)c2ncc(C#N)c(NCC(C)(C)C(F)(F)F)c2c1)c1nnn([C@@H](C)CF)c1F` [Example 858, 6-(((S)-(5-fluoro-1-((S)-1-fluoropropan-2-yl)-1H-1,2,3-triazol-4-yl)(6-fluoro-2-methylpyridin-3-yl)methyl)amino)-4-((3,3,3-trifluoro-2,2-dimethylpropyl)amino)quinoline-3,8-dicarbonitrile] gave a pIC50 in assay [1] (IC50 HTRF) of 8.15. Further, the pEC50 in assay [2] (setting [3]) was 7.36.
Regarding `Cc1nc(F)ccc1[C@H](Nc1cc(C#N)c2ncc(C#N)c(NCC(C)(C)C)c2c1)c1cn(C2(C(C)(C)C)CC2)nn1` [Example 860, (S)-6-(((1-(1-(tert-butyl)cyclopropyl)-1H-1,2,3-triazol-4-yl)(6-fluoro-2-methylpyridin-3-yl)methyl)amino)-4-(neopentylamino)quinoline-3,8-dicarbonitrile], the pIC50 in assay [1] (IC50 HTRF) was 8.52. In assay [2] (setting [3]), the pEC50 was 7.51.
The corresponding values for `Cc1nc(F)ccc1[C@H](Nc1cc(C#N)c2ncc(C#N)c(NCC(C)(C)C(F)(F)F)c2c1)c1nnn(C23CC(C2)C3)c1F` [Example 861, (S)-6-(((1-(bicyclo[1.1.1]pentan-1-yl)-5-fluoro-1H-1,2,3-triazol-4-yl)(6-fluoro-2-methylpyridin-3-yl)methyl)amino)-4-((3,3,3-trifluoro-2,2-dimethylpropyl)amino)quinoline-3,8-dicarbonitrile] are 8.15 and 7.40.
Consider `Cc1nc(F)ccc1[C@H](Nc1cc(C#N)c2ncc(C#N)c(NCC(C)(C)C(F)(F)F)c2c1)c1nnn(C2(C)CC2)c1F` [Example 863, (S)-6-(((5-fluoro-1-(1-methylcyclopropyl)-1H-1,2,3-triazol-4-yl)(6-fluoro-2-methylpyridin-3-yl)methyl)amino)-4-((3,3,3-trifluoro-2,2-dimethylpropyl)amino)-quinoline-3,8-dicarbonitrile], for which, in assay [1] (IC50 HTRF), the pIC50 is 8.70. Also, the pEC50 in assay [2] (setting [3]) was 7.46.
With `Cc1nc(F)ccc1[C@H](Nc1cc(C#N)c2ncc(C#N)c(NCC(C)(C)C)c2c1)c1cn(CC2(C)CC2)nn1` [Example 866, (S)-6-(((6-fluoro-2-methylpyridin-3-yl)(1-((1-methylcyclopropyl)methyl)-1H-1,2,3-triazol-4-yl)methyl)amino)-4-(neopentylamino)quinoline-3,8-dicarbonitrile], the pIC50 in assay [1] (IC50 HTRF) is 8.70. Besides, in assay [2] (setting [3]), the pEC50 was 7.74.
